From patent US11385234B2, “Methods and systems for detecting an analyte or classifying a sample” (Commonwealth Scientific and Industrial Research Organisation, priority 2012, dated 2022)
Values joined by “and” are separate entries in the source; they are usually repeats but may differ in a detail not shown here. Equal values may be shown once.

Columns and labels:
GFP^2-RG-RLuc biosensor = test: Hybrid BRET (BRET^H) thrombin cleavage assay, microplate; type: biochemical; conditions: 54 nM thrombin, 90 minutes, 30° C.; 1 μM fusion protein, 5 μM native coelenterazine
Excerpt: A combination of BRET^1 and BRET^2 techniques was used and referred to herein as hybrid BRET. Specifically, RLuc with native coelenterazine substrate was used as the bioluminescent donor and GFP^2 as the acceptor molecule. The donor and acceptor were linked by a peptide sequence containing the thrombin cleavage site ([…]↓ GSLQ (RG)) (GFP^2-RG-RLuc) and expressed in E. coli.
GFP^2-RG-RLuc biosensor was expressed and purified as reported previously (Dacres et al. 2009a). The purified fusion protein was in thrombin cleavage buffer (10 mM Tris (pH 8.0), 100 mM NaCl, 1 mM EDTA). The final concentration of the native coelenterazine substrate (Biosynth) used for microfluidic based assays was 58.6 μM and 5 μM for plate-reader based assays. 1 unit (U)/μl thrombin protease (Amersham Biosciences) solution was prepared in 1× phosphate buffer saline (PBS).
Simultaneous dual emission hybrid BRET measurements were carried out both in a microplate using a SpectraMax M2 spectrofluorimeter (Molecular Devices) and in the microfluidics apparatus described below. Spectral scans of BRET constructs were recorded using the luminescence scan mode between 400 and 650 nm on addition of 5 μM native coelenterazine substrate to 1 μM of biosensor. […]
Using the microplate spectrometer, hybrid BRET ratios were calculated as the ratio of bioluminescence emissions measured at 500 nm and 470 nm. […]

[1] = test system: GFP^2-RG-RLuc thrombin sensor; test: BRET^2 thrombin sensor in microfluidic chip with optical detection chamber; type: biochemical
Excerpt: In a BRET^2 system, Renilla luciferase (RLuc) with coelenterazine 400a (CLZ400A) substrate was used as the photon donor and GFP^2 was used as the acceptor molecule. As the luminescence of BRET^2 is 100-fold smaller than that of the BRET^1.5, the BRET^2 reaction requires efficient mixing at optimal temperature, detection chamber size, flow rates and concentrations to produce highest bioluminescence signal. Thus, this system is used to evaluate different mixing mechanisms (FIG. 8), reaction chamber designs and reaction conditions.
PDMS chips with a Y-shaped microchannel with three mixing elements (FIG. 8), with a rectangular cross section in the microchannels (200 μm in width and 30 μm in height) was used to monitor BRET^2 assays. The detection chambers with different diameter and height were located at the end of the microchannels. The emitting bioluminescence was collected by a multimode optical fiber located underneath the detection chamber. The emissions will be split by dichroic block and going through two band pass filters corresponding to emission band of the donor (430 nm-455 nm) and the emission band of the acceptor (515 nm-555 nm) before going into two corresponding photomultiplier tubes (Hamamatsu H7421). […]
Approximately 75% decrease in BRET^2 signal was measured for on-chip reaction at input flow rate of 50 μL/hr (FIG. 12).

[2] = test system: BRET^2 based thrombin biosensor; conditions: cited from earlier work

## thrombin
GFP^2-RG-RLuc biosensor
  BRET^H ratio following thrombin cleavage: 0.75±0.04 and 0.79±0.05
  decrease in BRET^H ratio following thrombin cleavage: approximately 32%
[1]; 270 pM thrombin
  change in BRET^2 ratio (GFP/RLuc) after digestion of the sensor: approximately tenfold
[1]; 540 nM thrombin, 1 μM sensor, 12.5 μM substrate, two-inlet device, 50 μL/hr
  decrease in BRET^2 signal, on-chip reaction: Approximately 75%
[2]
  kcat of thrombin: ≈ 85 s^−1
